According to ChEMBL document CHEMBL1158440, “Linear disulfide-containing low polymer as efficient DNA cleavage reagent” (Bioorg Med Chem Lett, 2009):
Activity calls are given as the source filed them. No cut-off for these calls is given here.

Tests used:
Format in all cases: nucleic-acid assay
Nucleic Acid [1] = experiment: Induction of supercoiled Escherichia coli pUC19 cleavage assessed as formation of nicked DNA at 7 mg/L in phosphate buffered saline at pH 7.4 after 24 hrs by agarose gel electrophoresis relative to control
Nucleic Acid [2] = experiment: Induction of supercoiled Escherichia coli pUC19 cleavage assessed as formation of nicked DNA at 14 mg/L in phosphate buffered saline at pH 7.4 after 24 hrs by agarose gel electrophoresis relative to control
Nucleic Acid [3] = experiment: Induction of supercoiled Escherichia coli pUC19 cleavage assessed as formation of nicked DNA at 28 mg/L in phosphate buffered saline at pH 7.4 after 24 hrs by agarose gel electrophoresis relative to control
Nucleic Acid [4] = experiment: Induction of supercoiled Escherichia coli pUC19 cleavage assessed as formation of nicked DNA at 56 mg/L in phosphate buffered saline at pH 7.4 after 24 hrs by agarose gel electrophoresis relative to control
Nucleic Acid [5] = experiment: Induction of supercoiled Escherichia coli pUC19 cleavage assessed as formation of nicked DNA at 56 mg/L in phosphate buffered saline at pH 7.4 after 8 hrs by agarose gel electrophoresis relative to control
Calf thymus DNA = experiment: Binding affinity to calf thymus DNA assessed as change in melting temperature at 18 mg/L by spectrophotometry; details: Bos taurus
Nucleic Acid [6] = experiment: Induction of supercoiled Escherichia coli pUC19 cleavage assessed as formation of nicked DNA at 56 mg/L in phosphate buffered saline at pH 7.4 after 24 hrs by agarose gel electrophoresis in presence of NaN3
Nucleic Acid [7] = experiment: Induction of supercoiled Escherichia coli pUC19 cleavage assessed as formation of nicked DNA at 56 mg/L in phosphate buffered saline at pH 7.4 after 24 hrs by agarose gel electrophoresis in presence of potassium iodide
Nucleic Acid [8] = experiment: Induction of supercoiled Escherichia coli pUC19 cleavage assessed as formation of nicked DNA at 56 mg/L in phosphate buffered saline at pH 7.4 after 24 hrs by agarose gel electrophoresis in presence of tert-butyl alcohol
Nucleic Acid [9] = experiment: Induction of supercoiled Escherichia coli pUC19 cleavage assessed as formation of nicked DNA at 56 mg/L in phosphate buffered saline at pH 7.4 after 24 hrs by agarose gel electrophoresis in presence of DMSO
Nucleic Acid [10] = experiment: Induction of supercoiled Escherichia coli pUC19 cleavage assessed as formation of nicked DNA at 56 mg/L in phosphate buffered saline at pH 7.4 upto 24 hrs by agarose gel electrophoresis relative to control

Compound	Activity (Nucleic Acid [1]) [%]	Activity (Nucleic Acid [2]) [%]	Activity (Nucleic Acid [3]) [%]	Activity (Nucleic Acid [4]) [%]	Activity (Nucleic Acid [5])	ΔTm (Calf thymus DNA) [°C]	Activity (Nucleic Acid [6])	Activity (Nucleic Acid [7])	Activity (Nucleic Acid [8])	Activity (Nucleic Acid [9])	Activity (Nucleic Acid [10]) [%]
O=C(CS)N1CCNCCN(C(=O)CSSCC(=O)N2CCNCCN(C(=O)CSSCC(=O)N3CCNCCN(C(=O)CSSCC(=O)N4CCNCCN(C(=O)CSSCC(=O)N5CCNCCN(C(=O)CS)CCNCC5)CCNCC4)CCNCC3)CCNCC2)CCNCC1	31	66	92	100	Active	4	inactive	inactive	inactive	Active	–
O=C(CS)N1CCNCCN(C(=O)CS)CCNCC1	20	24	44	63	35%	3.4	–	–	–	–	92
